Experimental data as given in patent publication US20250170065A1, “THERAPEUTIC COMPOUNDS, FORMULATIONS, AND USE THEREOF” (priority 2022, published 2025).

Experiments:
[1] = in vivo
Description: Particle size reduction for TTI-101 by micronization and nano-milling provided poor bioavailability (e.g., 10-20 times lower bioavailability than a solution of TTI-101). Hot melt extrusion (HME) was used and the resulting dispersions were evaluated using DSC miscibility, DSC extrudability and rheology studies. Polymer systems tried include: Soluplus; Soluplus+Kolliphor RH40; Soluplus+Vitamin E TPGS; and PVPVA64+Kolliphor RH40.

[2] = Solubility of TTI-101; format: physicochemical
Text: The compound of Formula (I) (also referred to as TTI-101) is highly insoluble (“brick dust”). […] Furthermore, the compound of Formula (I) has a crystalline structure with high crystal-lattice energy, contributing to rapid precipitation or crystallization of the compound from solution. Its low solubility and high crystallinity have contributed to various difficulties in preparing formulations that are suitable for administration in human subjects. Current formulations are liquid formulations delivered via capsules. For example, a formulation of the compound of formula (I) dissolved in 60:40 Labrasol®/PEG400 and encapsulated into a hard gelatin capsule (unit dose: 36 mg), while showing encouraging results in 3 dose cohorts, was prevented from advancing to a fourth patient cohort (25.6 mg/kg/day as 12.8 mg/kg twice daily (BID) doses) because of an unacceptably high pill burden. For example, a 70 kg subject in Cohort 4 would require […] per day split into BID doses. […]

In the case of `COc1ccc(S(=O)(=O)Nc2cc(-c3c(O)ccc4ccccc34)c(O)c3ccccc23)cc1` [TTI-101], the “bioavailability lower than a solution of TTI-101” value [1] is reported as 10-20 times, the “solubility in aqueous solutions” value [2] is reported as “insoluble” and the “solubility in most solvents” value [2] is reported as “relatively low solubility”.
